In patent US9850225B2, “Compounds useful as immunomodulators” (BRISTOL-MYERS SQUIBB COMPANY, priority 2014, dated 2017):

What follows are molecules tested against PD-1/PD-L1 interaction (PD-1-Ig / PD-L1-His) (Homo sapiens (Human), UniProt Q9NZQ7) (assay: PD-1/PD-L1 Homogenous Time-Resolved Fluorescence (HTRF) binding assay). Settings: PD-1/PD-L1 HTRF binding assay; value given as range class; read-out: Range or IC50.
From the text: The ability of the compounds of formula (I) to bind to PD-L1 was investigated using a PD-1/PD-L1 Homogenous Time-Resolved Fluorescence (HTRF) binding assay.
Homogenous Time-Resolved Fluorescence (HTRF) Binding Assay.
The interaction of PD-1 and PD-L1 can be assessed using soluble, purified preparations of the extracellular domains of the two proteins. The PD-1 and PD-L1 protein extracellular domains were expressed as fusion proteins with detection tags, for PD-1, the tag was the Fc portion of Immunoglobulin (PD-1-Ig) and for PD-L1 it was the 6 histidine motif (PD-L1-His). All binding studies were performed in an HTRF assay buffer consisting of dPBS supplemented with 0.1% […] bovine serum albumin and 0.05% (v/v) Tween-20. For the h/PD-L1-His binding assay, inhibitors were pre-incubated with PD-L1-His (10 nM final) for 15 m in 4 μl of assay buffer, followed by addition of PD-1-Ig (20 nM final) in 1 μl of assay buffer and further incubation for 15 m. HTRF detection was achieved using europium crypate-labeled anti-Ig (1 nM final) and allophycocyanin (APC) labeled anti-His (20 nM final). Antibodies were diluted in HTRF detection buffer and 5 μl was dispensed on top of the binding reaction. […] Additional binding assays were established between the human proteins PD-1-Ig/PD-L2-His (20 & 5 nM, respectively) and CD80-His/PD-L1-Ig (100 & 10 nM, respectively). […]

Sequence of PD-1/PD-L1 interaction (PD-1-Ig / PD-L1-His) (Q9NZQ7 other isoform, or with tags, fused parts or gaps): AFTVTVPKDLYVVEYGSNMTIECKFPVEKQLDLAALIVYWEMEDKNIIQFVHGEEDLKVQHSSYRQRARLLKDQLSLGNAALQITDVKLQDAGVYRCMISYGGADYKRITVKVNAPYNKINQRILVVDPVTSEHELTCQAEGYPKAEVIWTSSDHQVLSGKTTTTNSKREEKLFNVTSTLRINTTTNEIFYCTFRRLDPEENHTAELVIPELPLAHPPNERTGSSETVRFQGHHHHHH

IC50, 0.1 to 20 µM:
CC(=O)NCCNCc1ccc(OCc2cccc(-c3ccccc3)c2C)cc1OCc1cc(C(F)(F)F)cc(C(F)(F)F)c1 [Example 1061, N-(2-((2-((3,5-bis(trifluoromethyl)benzyl)oxy)-4-((2-methyl-[1,1′-biphenyl]-3-yl)methoxy)benzyl)amino)ethyl)acetamide]
CC(=O)NCCNCc1ccc(OCc2cccc(-c3ccccc3)c2C)cc1OCc1cc(F)cc(F)c1 [Example 1062, N-(2-((2-((3,5-difluorobenzyl)oxy)-4-((2-methyl-[1,1′-biphenyl]-3-yl)methoxy)benzyl)amino)ethyl)acetamide]
CC(=O)NCCNCc1ccc(OCc2cccc(-c3ccccc3)c2C)cc1OCc1cccc2ccccc12 [Example 1063, N-(2-((4-((2-methyl-[1,1′-biphenyl]-3-yl)methoxy)-2-(naphthalen-1-ylmethoxy)benzyl)amino)ethyl)acetamide]
CC(=O)NCCNCc1ccc(OCc2cccc(-c3ccccc3)c2C)cc1OCc1ccc(F)cc1F [Example 1064, N-(2-((2-((2,4-difluorobenzyl)oxy)-4-((2-methyl-[1,1′-biphenyl]-3-yl)methoxy)benzyl)amino)ethyl)acetamide]
CC(=O)NCCNCc1ccc(OCc2cccc(-c3ccccc3)c2C)cc1OCc1cc(C)cc(C)c1 [Example 1065, N-(2-((2-((3,5-dimethylbenzyl)oxy)-4-((2-methyl-[1,1′-biphenyl]-3-yl)methoxy)benzyl)amino)ethyl)acetamide]
CC(=O)NCCNCc1ccc(OCc2cccc(-c3ccccc3)c2C)cc1OCc1ccccc1C(F)(F)F [Example 1066, N-(2-((4-((2-methyl-[1,1′-biphenyl]-3-yl)methoxy)-2-((2-(trifluoromethyl)benzyl)oxy)benzyl)amino)ethyl)acetamide]
COC(=O)c1ccc(COc2cc(OCc3cccc(-c4ccccc4)c3C)ccc2CNCCNC(C)=O)cc1 [Example 1067, methyl 4-((2-(((2-acetamidoethyl)amino)methyl)-5-((2-methyl-[1,1′-biphenyl]-3-yl)methoxy)phenoxy)methyl)benzoate]
CC(=O)NCCNCc1ccc(OCc2cccc(-c3ccccc3)c2C)cc1OCc1ccc(Cl)cc1 [Example 1068, N-(2-((2-((4-chlorobenzyl)oxy)-4-((2-methyl-[1,1′-biphenyl]-3-yl)methoxy)benzyl)amino)ethyl)acetamide]
CC(=O)NCCNCc1ccc(OCc2cccc(-c3ccccc3)c2C)cc1OCc1ccc(Cl)c(Cl)c1 [Example 1069, N-(2-((2-((3,4-dichlorobenzyl)oxy)-4-((2-methyl-[1,1′-biphenyl]-3-yl)methoxy)benzyl)amino)ethyl)acetamide]
CC(=O)NCCNCc1ccc(OCc2cccc(-c3ccccc3)c2C)cc1OCc1cccc(C)c1F [Example 1070, N-(2-((2-((2-fluoro-3-methylbenzyl)oxy)-4-((2-methyl-[1,1′-biphenyl]-3-yl)methoxy)benzyl)amino)ethyl)acetamide]
CC(=O)NCCNCc1ccc(OCc2cccc(-c3ccccc3)c2C)cc1OCc1cccc(F)c1F [Example 1071, N-(2-((2-((2,3-difluorobenzyl)oxy)-4-((2-methyl-[1,1′-biphenyl]-3-yl)methoxy)benzyl)amino)ethyl)acetamide]
CC(=O)NCCNCc1ccc(OCc2cccc(-c3ccccc3)c2C)cc1OCc1cccc(Cl)c1F [Example 1072, N-(2-((2-((3-chloro-2-fluorobenzyl)oxy)-4-((2-methyl-[1,1′-biphenyl]-3-yl)methoxy)benzyl)amino)ethyl)acetamide]
CC(=O)NCCNCc1ccc(OCc2cccc(-c3ccccc3)c2C)cc1OCc1cccc(C(=O)c2ccccc2)c1 [Example 1073, N-(2-((2-((3-benzoylbenzyl)oxy)-4-((2-methyl-[1,1′-biphenyl]-3-yl)methoxy)benzyl)amino)ethyl)acetamide]
